{
  "source": "the supplement of paper PMC10307832",
  "experiment_in_all_cases": "relative viability (nuclei count vs DMSO), 5 days (fraction); higher = more cells survive",
  "key": {"[1]": {"compound": "C1=CC=C2C(=C1)N=C(S2)C(C#N)C3=NC(=NC=C3)NCCC4=CN=CC=C4 + COc1cc2c(Oc3ccc(NC(=O)C4(C(=O)Nc5ccc(F)cc5)CC4)cc3F)ccnc2cc1OCCCN1CCOCC1 [Foretinib] (partner 0.25 µM)", "method_in_brief": "(§1)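 Lung cancer cell lines were seeded in 1536-well plates and dosed by pin tool the next day, with either a single drug or a fixed anchor-drug dose combined with five library-drug doses (not always all listed) spaced in √10 steps. Five days later, one step fixed the cells and stained their nuclei (final 0.05% Triton X-100, 1% formaldehyde, 1 ug/ml Hoechst), and nuclei were counted on 4× images. Relative viability is the nuclei count in treated wells divided by the count in vehicle wells, and each value is the median of duplicate plates.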"}, "Vandetanib + Trametinib": {"compound": "COc1cc2/c(=N/c3ccc(Br)cc3F)nc[nH]c2cc1OCC1CCN(C)CC1 [Vandetanib] + CC(=O)Nc1cccc(-n2c(=O)n(C3CC3)c(=O)c3c(Nc4ccc(I)cc4F)n(C)c(=O)c(C)c32)c1 [Trametinib] (partner 0.02 µM)", "method_in_brief": "as §1"}, "[2]": {"compound": "C1=CC=C2C(=C1)N=C(S2)C(C#N)C3=NC(=NC=C3)NCCC4=CN=CC=C4 + CC(=O)Nc1cccc(-n2c(=O)n(C3CC3)c(=O)c3c(Nc4ccc(I)cc4F)n(C)c(=O)c(C)c32)c1 [Trametinib] (partner 0.02 µM)", "method_in_brief": "as §1"}, "NVP-TAE684 + Vorinostat": {"compound": "COc1cc(N2CCC(N3CCN(C)CC3)CC2)ccc1Nc1ncc(Cl)c(Nc2ccccc2S(=O)(=O)C(C)C)n1 [NVP-TAE684] + O=C(CCCCCCC(=O)Nc1ccccc1)NO [Vorinostat] (partner 1 µM)", "method_in_brief": "as §1"}},
  "data": [
    {"cell line": "EPLC-272H", "values": [
      {"measurement": "relative viability", "setting": "[1]; first compound 0.005 µM", "value": 0.588},
      {"measurement": "relative viability", "setting": "[1]; first compound 0.01581 µM", "value": 0.586},
      {"measurement": "relative viability", "setting": "[1]; first compound 0.05 µM", "value": 0.673},
      {"measurement": "relative viability", "setting": "[1]; first compound 0.1581 µM", "value": 1},
      {"measurement": "relative viability", "setting": "[1]; first compound 0.5 µM", "value": 0.585},
      {"measurement": "relative viability", "setting": "Vandetanib + Trametinib; first compound 0.02 µM", "value": 0.303},
      {"measurement": "relative viability", "setting": "Vandetanib + Trametinib; first compound 0.06325 µM", "value": 0.242},
      {"measurement": "relative viability", "setting": "Vandetanib + Trametinib; first compound 0.2 µM", "value": 0.289},
      {"measurement": "relative viability", "setting": "Vandetanib + Trametinib; first compound 0.6325 µM", "value": 0.293},
      {"measurement": "relative viability", "setting": "Vandetanib + Trametinib; first compound 2 µM", "value": 0.255},
      {"measurement": "relative viability", "setting": "[2]; first compound 0.005 µM", "value": 0.392},
      {"measurement": "relative viability", "setting": "[2]; first compound 0.01581 µM", "value": 0.277},
      {"measurement": "relative viability", "setting": "[2]; first compound 0.05 µM", "value": 0.301},
      {"measurement": "relative viability", "setting": "[2]; first compound 0.1581 µM", "value": 0.336},
      {"measurement": "relative viability", "setting": "[2]; first compound 0.5 µM", "value": 0.265},
      {"measurement": "relative viability", "setting": "NVP-TAE684 + Vorinostat; first compound 0.2 µM", "value": 0.644},
      {"measurement": "relative viability", "setting": "NVP-TAE684 + Vorinostat; first compound 0.6325 µM", "value": 0.283},
      {"measurement": "relative viability", "setting": "NVP-TAE684 + Vorinostat; first compound 2 µM", "value": 0.2}
    ]}
  ]
}
